Consider three molecules from US6071916A, “HIV protease inhibitor” (priority 1998, dated 2000).

The test system of one series is HIV protease. As to conditions: assays described in WO 95/16688; cited from earlier work.
Series [1] can be described thus: oral absorption and bioavailability in animal models. It is filed as in vivo.
Series [2] can be described thus: hydrophobic/hydrophilic nature in formulation. It is filed as physicochemical. As to conditions: dispersion during formulation; HCl (dihydrate) requires wetting agents.

Structures can show the parent of a compound that is named as a salt.

Regarding `CC(C)(C)NC(=O)[C@@H]1CN(Cc2cc3ccccc3o2)CCN1C[C@@H](O)C[C@@H](Cc1ccccc1)C(=O)N[C@H]1c2ccccc2C[C@H]1O` [Compound A, N-(2(R)-hydroxy-1(S)-indanyl)-2(R)-phenylmethyl-4-(S)-hydroxy-5-(1-(4-(2-benzo[b]furanylmethyl)-2(S)-N'-(t-butylcarboxamido)-piperazinyl))-pentaneamide], in the series with HIV protease, the “inhibition of HIV protease” value is reported as “potent inhibitor of HIV protease”.

Take `CC(C)(C)NC(=O)[C@@H]1CN(Cc2cc3ccccc3o2)CCN1C[C@@H](O)C[C@@H](Cc1ccccc1)C(=O)N[C@H]1c2ccccc2C[C@H]1O` [HCl (dihydrate) salt, reference compound]: the oral absorption entry in series [1] (oral, animal models) was “poor”. In series [2], the “hydrophobic or hydrophilic nature” value is on record as “extremely hydrophobic”.

On to `CC(C)(C)NC(=O)[C@@H]1CN(Cc2cc3ccccc3o2)CCN1C[C@@H](O)C[C@@H](Cc1ccccc1)C(=O)N[C@H]1c2ccccc2C[C@H]1O` [sulfate salt], for which, in series [1] (compared with the existing HCl, HBr and methanesulfonate salts), the rate of absorption result is “more rapidly absorbed than the existing HCl, HBr and methanesulfonate salts”. For the same molecule, in series [1] (oral, animal models), the bioavailability result is “much greater” and the oral absorption entry is recorded as “much greater”. The “hydrophobic or hydrophilic nature” value in series [2] is given as “hydrophilic”.
